Records with an inconclusive call do not appear.

Here are results for seven compounds from PubChem BioAssay AID743336 (Broad Institute, 2014).

This test deals with C2C12 myotubes + simvastatin, ATP luminescence, 48 h. The test is described as follows: suppressors of statin-induced myotube ATP loss, dose response, cell-based, differentiated C2C12, luminescence, dry powder (AID 743336).
`C[C@H]1CN([C@@H](C)CO)C(=O)Cc2cc(NC(=O)CCCCCC(=O)Nc3ccccc3N)ccc2O[C@H]1CN(C)Cc1ccccc1`: the AC40 was 13.8 µM.

In the case of `CC(C)=CCC/C(C)=C/CC/C(C)=C/CC/C(C)=C/CO`, the AC40 was 4.38 µM.

In the case of `C[C@H](CO)N1C[C@H](C)[C@H](CN(C)CC2CCCCC2)Oc2ccc(NC(=O)CCCCCC(=O)Nc3ccccc3N)cc2CC1=O`, the AC40 is 9.21 µM.

As for `C[C@H]1CN([C@@H](C)CO)C(=O)c2cc(NC(=O)Nc3cccc4ccccc34)ccc2O[C@H]1CN(C)Cc1ccc(C(=O)Nc2ccccc2N)cc1`, the AC40 is 13.5 µM.

On to `C[C@@H]1CN([C@H](C)CO)C(=O)c2cccc(NC(=O)Nc3ccc4c(c3)OCO4)c2O[C@H]1CN(C)Cc1ccc(C(=O)Nc2ccccc2N)cc1`, for which the AC40 is 14.7 µM.

As to `C[C@@H]1CN([C@@H](C)CO)C(=O)c2cccc(NC(=O)Nc3ccc4c(c3)OCO4)c2O[C@H]1CN(C)Cc1ccc(C(=O)Nc2ccccc2N)cc1`, the AC40 is 16.2 µM.

Turning to `N#C[C@@H]1[C@@H](c2ccccc2)[C@H](CO)N1S(=O)(=O)c1ccc(-c2ccccc2)cc1`, the AC40 was 10.6 µM.
